Data set [1] can be described thus: Blood pressure and heart rate in rats. It is filed as in vivo. The text has this: (§1) We have expanded this work on AICA riboside and S-AICA riboside homocysteine to examine other known adenosine kinase inhibitors as adenosine releasing agents. The flux (substrate made into product per unit of time), through adenosine kinase under physiological conditions is low; substrate metabolism is low partly due to low substrate availability. However, during net ATP catabolism, substrate availability (i.e. adenosine concentration) dramatically increases. […] (See Figure 15).

The next data set relates to cell culture. Briefly: Adenosine concentrations in cell culture during net ATP breakdown. It is filed as cell-based.
Text: as §1

A further data set deals with PTZ induced seizures. In words: Inhibition of PTZ-induced seizures. The format is in vivo. The settings on record: mice. As for the experimental part:
(§2) All solutions to be injected were prepared as a single injection cocktail at a concentration such that 1 ml per 100 g of body weight yielded the desired dose. The solutions were compounded as follows: Homocysteine Thiolactone - HCl (HTL-HCl) (Sigma Chemical Company, St. Louis, MO) was dissolved in distilled water and the pH adjusted to 6.7 with NaOH. Pentylenetetrazol (PTZ) was dissolved in 0.9% saline. Prodrug compounds or AICA riboside (Sigma) when used alone was dissolved in distilled water. All solutions containing Mioflazine (Janssen Pharmaceuticals) were prepared at a final DMSO concentration of 10-15% as were the Dipyridamole (Sigma) solutions. N-ethylcarboxamide adenosine, NECA (Sigma) and Flunitrazepam (Hoffman La Roche) injections were prepared in a final ethanol concentration of 0.2%. In all cases carrier control solutions of carrier were injected that were matched for both tonicity and solvents to the test solutions. All test and control solutions were injected via a bolus, I.P., using a 27 gauge needle. HTL and PTZ were injected subcutaneously in the upper back of the animal.
Animals were preinjected with either control solution containing only carrier or test solution containing candidate compound (prodrug or AICA riboside) and carrier in groups of 6-8 per test solution or control. […]

In a further data set the test system is HTL-induced seizures. Briefly: Inhibition of HTL-induced seizures. The format is in vivo. The settings on record: mice. As for the experimental part:
Compounds were tested for their activities in inhibiting HTL-induced seizures in rats.
Animals used were male Swiss Webster mice weighing 21-30 grams (Charles River Breeding Labs, Wilmington, MA). All animals were adapted to the laboratory for at least 5 days prior to use.
as §2, with “animal. […]” for “animal.”

The test system of another data set is ischemic heart tissue. Briefly: Adenosine, AICA riboside and ZMP levels in ischemic heart tissue. It is filed as in vivo, rats. To be noted: for adenosine concentrations during net ATP breakdown: rat heart ischemia model. The protocol:
Prodrug compounds of the present invention and AICA riboside were tested for their activity in enhancing the production of adenosine and increasing production of AICA riboside from ZMP in ischemic heart tissue in rats.
Samples of heart tissue after ischemia were analyzed for nucleoside and nucleotide levels. Samples were measured for adenosine, AICA riboside and ZMP concentrations by HPLC.

The nature of another data set: in vivo. Also noted: species or system dogs. The settings on record: dog; for AUC / Cmax / Tmax: po. As for the experimental part:
The bioavailability of AICA riboside after oral administration of either AICA riboside or one of the AICA riboside prodrugs of the present invention was evaluated in dogs. Plasma concentrations of AICA riboside and intact prodrug were measured using HPLC. (See Dixon, R., et al., Res. Commun. Chem. Path. Pharm. 65:405-408 (1989)). Bioavailability of AICA riboside was evaluated in terms of the time required to reach maximum plasma concentration (Tmax), the maximum concentration achieved (Cmax) and the area under the plasma concentration-time curve (AUC) from time zero to the last measurable plasma concentration. Absolute bioavailability (F%) was calculated by dividing the AUC for AICA riboside following oral administration of the prodrug (or AICA riboside itself) by the AUC following intravenous administration of an equivalent amount of AICA riboside (100% bioavailability).

In the next data set the test system is plasma glucose. Briefly: Plasma glucose after adenosine and adenosine receptor agonists I.P. It is filed as in vivo. The settings on record: administered I.P. in either rats or mice. The source says:
This leads to investigation of the mechanism of AICA riboside induced hypoglycemia. […] This adenosine induced hyperglycemia is reversed by adenosine receptor antagonists (theophylline and sulphophenyltheophylline). Additionally, the AICA riboside-induced hypoglycemia is not blocked by theophylline. It is therefore concluded that the AICA riboside effect on plasma glucose is not mediated by adenosine. […] (See Figure 13).

Data set [2] is described as follows: Enhanced oral bioavailability: tissue ZMP levels after gavage. It is filed as in vivo, Sprague-Dawley rats. As for the experimental part:
AICA riboside was administered to Sprague-Dawley rats at a dose of 250 mg/kg or 500 mg/kg, prodrug compounds of the present invention were administered at an equal molar dose.
At 15, 30, 60 and 120 minutes after gavage, the animals were sacrificed. The tissues were obtained and frozen immediately for nucleoside and nucleotide analysis. The tissue samples obtained were liver, heart, brain and whole blood. After initial freezing in liquid nitrogen, the tissue samples were extracted with trichloroacetic acid and neutralized with alamine freon. The tissue samples were evaluated by HPLC on a Whatman Partsil-10 (SAX) column for nucleosides and bases as described in Example 6. […] Tests were run with 8 rats.
Figures 5(a) and (b) show ZMP concentrations in rat liver at doses of a molar equivalent of 250 mg/kg and 500 mg/kg AICA riboside.

A further data set concerns blood glucose. To be noted: several animal species, including man; cited from earlier work.
In a further data set the target is adenosine kinase (Homo sapiens, UniProt P55263). In words: Inhibition of adenosine kinase. It is filed as biochemical.
Chain of adenosine kinase (P55263 whole entry, species assumed): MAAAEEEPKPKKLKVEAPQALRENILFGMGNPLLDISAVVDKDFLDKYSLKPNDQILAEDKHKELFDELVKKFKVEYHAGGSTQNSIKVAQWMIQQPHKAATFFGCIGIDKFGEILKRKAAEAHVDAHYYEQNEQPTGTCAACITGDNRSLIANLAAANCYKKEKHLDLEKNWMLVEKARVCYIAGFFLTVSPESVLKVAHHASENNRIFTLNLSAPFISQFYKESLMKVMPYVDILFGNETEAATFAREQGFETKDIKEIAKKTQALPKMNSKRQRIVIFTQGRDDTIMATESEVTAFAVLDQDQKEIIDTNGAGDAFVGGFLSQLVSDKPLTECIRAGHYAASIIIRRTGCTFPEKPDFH
Data set [3] concerns the target T1, FDPase (Homo sapiens, UniProt P09467).
T1 construct: Liver samples (from the indicated species) were homogenized; from tissue; host or cells: human liver homogenate, 45,000 x g supernatant passed over Sephadex G25
Briefly: Inhibition of liver FDPase by ZMP (IC50). It is filed as biochemical. The settings on record: Human liver homogenate supernatant. The protocol:
(§3) Liver samples (from the indicated species) were homogenized in 20 mM potassium phosphate buffer (pH 7.4) with 100 µM EDTA and 100 µM dithiothreitol. The liver homogenates were centrifuged at 45,000 x/g. The supernatants were passed over a sephadex G25 column and assayed for FDPase activity by the method of Marcus et al (Methods in Enzymology 90: 352-356 (1982)) in the presence of ZMP over a range of concentration and in the absence of ZMP. The IC50 value was defined as the concentration of ZMP, which inhibited 50 percent of the baseline FDPase activity under the assay conditions.

Data set [4] deals with T2, FDPase (Mus musculus, UniProt Q9QXD6).
T2 construct: Liver samples (from the indicated species) were homogenized; from tissue; host or cells: mouse liver homogenate, 45,000 x g supernatant passed over Sephadex G25
T2 sequence (Q9QXD6 2-338 limits assumed): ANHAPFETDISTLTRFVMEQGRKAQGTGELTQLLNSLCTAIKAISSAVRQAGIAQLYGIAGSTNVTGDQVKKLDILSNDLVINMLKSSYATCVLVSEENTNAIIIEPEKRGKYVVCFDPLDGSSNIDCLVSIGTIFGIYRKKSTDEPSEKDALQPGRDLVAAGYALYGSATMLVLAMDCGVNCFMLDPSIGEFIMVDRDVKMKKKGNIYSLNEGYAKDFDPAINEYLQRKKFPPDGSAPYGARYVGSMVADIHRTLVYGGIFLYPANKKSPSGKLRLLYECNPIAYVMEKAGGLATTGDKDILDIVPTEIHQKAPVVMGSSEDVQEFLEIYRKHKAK
Briefly: Inhibition of liver FDPase by ZMP (IC50). To be noted: Mouse liver homogenate supernatant. The format is biochemical. As for the experimental part:
as §3

For data set [5], the target named is FDPase. Briefly: Inhibition of liver FDPase by ZMP (IC50). The format is biochemical. The protocol: as §3
The target in data set [6] is T3, FDPase (Oryctolagus cuniculus, UniProt P00637).
T3 construct: Liver samples (from the indicated species) were homogenized; from tissue; host or cells: rabbit liver homogenate, 45,000 x g supernatant passed over Sephadex G25
T3 sequence (P00637 2-338 limits assumed): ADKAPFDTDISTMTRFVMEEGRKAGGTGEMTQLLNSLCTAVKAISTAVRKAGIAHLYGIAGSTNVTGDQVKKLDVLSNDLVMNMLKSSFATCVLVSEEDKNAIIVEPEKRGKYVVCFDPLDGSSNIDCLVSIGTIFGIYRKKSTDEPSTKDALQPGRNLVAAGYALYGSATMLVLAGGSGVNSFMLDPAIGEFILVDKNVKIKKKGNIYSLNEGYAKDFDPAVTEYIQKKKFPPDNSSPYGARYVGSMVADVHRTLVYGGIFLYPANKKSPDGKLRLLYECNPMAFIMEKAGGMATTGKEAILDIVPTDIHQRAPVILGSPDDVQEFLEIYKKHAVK
Briefly: Inhibition of liver FDPase by ZMP (IC50). To be noted: Rabbit liver homogenate supernatant. It is filed as biochemical. The protocol: as §3

The target in data set [7] is T4, FDPase (Rattus norvegicus, UniProt P19112).
T4 construct: Liver samples (from the indicated species) were homogenized; from tissue; host or cells: rat liver homogenate, 45,000 x g supernatant passed over Sephadex G25
T4 sequence (P19112 2-363 limits assumed): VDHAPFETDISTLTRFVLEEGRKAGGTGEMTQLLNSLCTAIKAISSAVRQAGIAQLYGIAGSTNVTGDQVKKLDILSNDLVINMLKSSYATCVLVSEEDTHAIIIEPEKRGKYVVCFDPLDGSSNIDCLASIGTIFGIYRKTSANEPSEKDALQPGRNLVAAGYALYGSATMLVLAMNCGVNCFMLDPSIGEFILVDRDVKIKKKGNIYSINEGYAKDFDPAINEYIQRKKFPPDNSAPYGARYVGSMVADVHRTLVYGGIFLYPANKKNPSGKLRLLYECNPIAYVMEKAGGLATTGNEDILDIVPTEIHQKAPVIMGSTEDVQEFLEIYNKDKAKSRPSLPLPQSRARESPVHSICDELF
Briefly: Inhibition of liver FDPase by ZMP (IC50). To be noted: Rat liver homogenate supernatant. It is filed as biochemical. The protocol: as §3

Data set [8] concerns the target T5, fructose diphosphatase ("FDPase") (Oryctolagus cuniculus, UniProt P00637).
T5 construct: fructose -1,6- diphosphatase from rabbit liver (Sigma); purchased Sigma; host or cells: rabbit liver (enzyme isolated from tissue)
Briefly: Inhibition of fructose-1,6-diphosphatase from rabbit liver. The format is biochemical. The text has this: Activity was expressed as a velocity (rate of conversion of substrate).

Structures are written as SMILES.

T5 sequence (P00637 2-338 limits assumed): as the sequence (P00637 2-338 limits assumed) above
T1 sequence (P09467 2-338 limits assumed): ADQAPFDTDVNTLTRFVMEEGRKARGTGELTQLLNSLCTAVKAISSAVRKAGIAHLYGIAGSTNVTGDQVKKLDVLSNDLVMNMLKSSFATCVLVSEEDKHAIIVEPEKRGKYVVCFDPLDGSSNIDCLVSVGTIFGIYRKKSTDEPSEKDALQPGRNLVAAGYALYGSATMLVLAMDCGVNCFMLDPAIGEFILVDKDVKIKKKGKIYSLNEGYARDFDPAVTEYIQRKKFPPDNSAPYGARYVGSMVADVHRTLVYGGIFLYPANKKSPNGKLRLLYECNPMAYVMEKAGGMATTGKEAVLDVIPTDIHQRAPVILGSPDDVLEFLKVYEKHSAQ

On to `NC[C@H]1O[C@@H](n2cnc3c(N)ncnc32)[C@H](O)[C@@H]1O` [5'-amino-5'-deoxyadenosine], for which the “changes in blood pressure or heart rate” value in data set [1] was “did not produce any significant changes in blood pressure or heart rate”. Besides, the “adenosine concentrations during net ATP breakdown” value with cell culture and in the data set with ischemic heart tissue was “increased adenosine concentrations” throughout. In addition, in the data set with PTZ induced seizures, the “activity against PTZ induced seizures” value was “effective in blocking pentylene-tetrazole (PTZ) induced seizures”. The “activity against HTL-induced seizures” value in the data set on HTL-induced seizures was “observed to prevent HTL-induced seizure”.
For the compound `Nc1ncnc2c1c(I)cn2[C@@H]1O[C@H](CO)[C@@H](O)[C@H]1O` [5-iodotubercidin], the “adenosine concentrations during net ATP breakdown” value in the data set with cell culture and with ischemic heart tissue was “increased adenosine concentrations” each time.
Turning to `CC(C)C(=O)OC[C@H]1O[C@@H](n2cnc(C(N)=O)c2N)[C@H](O)[C@@H]1O` [Compound 10, 5'-isobutyryl-AICA riboside], in “in vivo”, the F was 60%, the AUC worked out at 4.9 µg·h/mL, the Cmax was found to be 5.0 µg/mL and the Tmax was 0.75 h.
The like results for `CC(C)(C)C(=O)OC[C@H]1O[C@@H](n2cnc(C(N)=O)c2N)[C@H](O)[C@@H]1O` [Compound 11, 5'-pivalyl-AICA riboside] were, in that order, 44%, 3.7 µg·h/mL, 3.2 µg/mL and 1.0 h.
With `CC(=O)OC[C@H]1O[C@@H](n2cnc(C(N)=O)c2N)[C@H](OC(C)=O)[C@@H]1OC(C)=O` [Compound C1, 2',3',5'-triacetyl AICA riboside], in “in vivo”, the F stood at 39%, the AUC worked out at 3.2 µg·h/mL, the Cmax was 2.2 µg/mL and the Tmax was found to be 1.5 h.
`CCNC(=O)[C@H]1O[C@@H](n2cnc3c(N)ncnc32)[C@H](O)[C@@H]1O` [N-ethylcarboxamide adenosine]: in the data set with plasma glucose, the “increases in plasma glucose (hyperglycemia)” value is 200-300%.
`CC(C)COC(=O)O[C@H]1[C@@H](O)[C@H](n2cnc(C(N)=O)c2N)O[C@@H]1CO` [Prodrug A, 5-amino-3'-(2-methyl-1-propoxycarbonyl)-1-β-D-ribofuranosyl-imidazole-4-carboxamideie]: in the data set with HTL-induced seizures, the “activity against HTL-induced seizures” value is on record as “improved anticonvulsant activity”. In the data set with ischemic heart tissue (ischemic heart model, molar basis), the “potency in enhancing adenosine production relative to AICA riboside” value was “about 30%”. The “Tissue Concentration Adenosine” value in the data set with ischemic heart tissue (ischemic rat heart tissue, Prodrug A at dose equimolar to AICA riboside) turned out to be 553 ± 46 nmol/g. Also, the “Tissue Concentration AICA Riboside” value in the data set on ischemic heart tissue (ischemic rat heart tissue, equimolar doses) is 592 ± 55 nmol/g. For the same compound, the “ZMP accumulation in the liver relative to AICA riboside” value in data set [2] (after an equimolar gavage) was 5 times. The “oral bioavailability as evidenced by ZMP levels in liver, whole blood and heart” value in data set [2] (rats, gavage, dose equimolar to AICA riboside) was “increased oral bioavailability”.
Turning to `O=C[C@H](O)[C@H](O)[C@H](O)CO` [Ribose], the “dose lowering blood glucose” value in the data set on blood glucose is “about 1000 mg/kg”.
On to `NC(=O)c1ncn(C2OC(CSCCC(N)C(=O)O)C(O)C2O)c1N` (stereo not shown) [S-AICA riboside homocysteine, S-AICA ribosyl homocysteine], for which the “inhibition of adenosine kinase” value on adenosine kinase is given as “more potent”.
Take `NC(=O)c1ncn([C@@H]2O[C@H](COP(=O)(O)O)[C@@H](O)[C@H]2O)c1N` [ZMP, AICA riboside-5'-monophosphate]: the IC50 against FDPase [3] was determined as 48 µM; on FDPase [4], 150 µM; against FDPase [5] (Gerbil liver homogenate supernatant) it was 50 µM; at FDPase [5] (Guinea Pig liver homogenate supernatant), 12 µM; on FDPase [6], 41 µM; at FDPase [7] it was 375 µM. Further, in [8], the Ki was about 40 µM.
In the case of `Nc1ncnc2c1ncn2[C@@H]1O[C@H](CO)[C@@H](O)[C@H]1O` [adenosine, 9-β-D-ribofuranosyladenine], in the data set on plasma glucose, the “increases in plasma glucose (hyperglycemia)” value was 200-300%.
The same measure, in the same setting: next, `OC[C@H]1O[C@@H](n2cnc3c(NC4CCCCC4)ncnc32)[C@H](O)[C@@H]1O` [cyclohexyladenosine]: 200-300%.

For orientation: AUC means concentration integrated over time. In general, Cmax refers to the maximum level reached in the sampled fluid or tissue. What is called Tmax is the time from dosing to the highest level. For orientation: IC50 means the point on the concentration scale where inhibition reaches its midpoint. Lower therefore signals higher potency. Broadly, the Ki is a measure of affinity in units of concentration, obtained from inhibition or displacement. Read a low Ki as tighter binding.

The values are drawn from patent publication EP0427799B1, “METHOD AND COMPOUNDS FOR AICA RIBOSIDE DELIVERY AND FOR LOWERING BLOOD GLUCOSE” (GENSIA, INC., priority 1989, dated 1990).
